# Source: US20100317731A1, “Hyperhidrosis treatment” (priority 2009, published 2010)
# Key:
# Format in all cases: in vivo, human
# [1] = tested on: patients who complained of excessive sweating; experiment: Open label study of 26 patients with excessive sweating treated with topiramate; conditions: 26 patients (18 females, 8 males), total daily dose 25 mg to 100 mg, subjective assessment and report, all on one or more antidepressant
# Experimental: In an open label study of 26 patients (18 females and 8 males) who complained of excessive sweating were treated with topiramate on the basis of off label prescribing. The patients were informed of the off-label nature of the treatment and they were counseled about the potential side effects of topiramate. The total daily dose ranged from 25 mg to 100 mg. Over 95% of patients experienced a significant response based on their subjective assessment and report. Patients were all adults with an age range from 25 yrs to 79 yrs. All the patients were on one or more antidepressant including various SSRI's with or without Bupropion. However, several of the patients had experienced excessive sweating for other reasons and before the use of antidepressants, even though adding the antidepressant exacerbated their underlying hyperhidrosis. Some of the underlying causes included perimenopause/menopause as well as primary or idiopathic hyperhidrosis. some had identified vulnerability from before, only made worse by antidepressants.
# [2] = tested on: patients with excessive sweating (drug-induced hyperhidrosis); experiment: Clinical examples: single patient case reports of excessive sweating treated with topiramate
# [3] = tested on: patients with excessive sweating; experiment: Inventor's data and observations in patients with excessive sweating
# Description: Based on data and observations that the inventor has, they have found topiramate (Topamax®) to have the following, previously undiscovered, beneficial pharmacological effects for patients with excessive sweating: The patient population in which the inventor has seen these benefits included both men and women ranging in age from 25 to 79 years. […] Optionally, the topiramate can be taken as a low dose on an as-needed basis to treat these sweating episodes. […] The inventor became convinced that topiramate was effective in the treatment of excessive sweating. They observed the improvement in patients whose sweating was induced by various antidepressant medications. Some experienced such sweating severity that they had to change their bedding at night as well as their night clothes. Others found it too embarrassing in the day time to the extent that it interfered with their work and social life; and some became reluctant to take their required antidepressant.
# [4] = men and women aged 25 to 79 years
# [5] = patients with excessive sweating
smiles,measurement,setting,value
CC1(C)O[C@@H]2[C@@H](CO[C@@]3(COS(N)(=O)=O)OC(C)(C)O[C@@H]23)O1 [topiramate],patients who experienced a significant response,[1],Over 95%
same,"excessive sweating, patient report","[2]; Example 1, a person, Cymbalta 60 mg daily, retrial of topiramate 25 mg twice daily",much better
same,"excessive sweating, patient report","[2]; Example 1, a person, Cymbalta 80 mg daily, topiramate raised from 50 mg daily to 50 mg twice daily","after initial improvement with the topiramate increase, the excessive sweating has recurred"
same,"excessive sweating, patient report","[2]; Example 2, a person, Cymbalta and Wellbutrin XL, topiramate 25 mg daily",much better
same,"adverse effects, patient report","[2]; Example 2, a person, topiramate 25 mg per day",no adverse effects
same,"excessive sweating, patient report","[2]; Example 3, a person, Effexor XR 300 mg daily, topiramate 50 mg daily",much improvement
same,"adverse effects, patient report","[2]; Example 3, a person, topiramate 50 mg daily",no adverse effects
same,"excessive sweating, patient report","[2]; Example 4, a person, Zoloft, topiramate 25 mg twice daily",improved
same,effectiveness when taken on an as needed basis,"[2]; Example 4, a person, Zoloft, topiramate as needed",effective
same,"adverse effects, patient report","[2]; Example 4, a person, topiramate",no adverse effects
same,"excessive sweating, patient report","[2]; Example 5, a person, Wellbutrin XL, Cymbalta, Pristiq, topiramate 50 mg daily",suboptimal improvement
same,"excessive sweating, patient report","[2]; Example 5, a person, topiramate 50 mg twice daily, improvement reported for five months thereafter",satisfactory
same,"excessive perspiration, patient report","[2]; Example 6, a person, Wellbutrin XL and Cymbalta, topiramate 25 mg daily, over eighteen months",satisfactory resolution
same,"adverse effects, patient report","[2]; Example 6, a person, topiramate 25 mg daily, over eighteen months",without any adverse effects
same,"excessive sweating, patient report","[2]; Example 7, a person, Aricept and Cymbalta 30 mg, topiramate 25 mg then 50 mg at bedtime",complete resolution
same,"adverse effects, patient report","[2]; Example 7, a person, topiramate 25 mg then 50 mg at bedtime",no adverse effects
same,effectiveness against drug-induced hyperhidrosis at low dose,[3]; doses as low as 12.5 mg per day in an adult,highly effective
same,incidence of side effects at low dosage,[3]; low dosage,without significant incidence of those side effects
same,benefit in the patient population,[3]; [4],all benefited
same,side effects in the patient population,[3]; [4],minimal side effects
same,effect on excessive sweating caused by antidepressants and similar medications,[3]; [5],Substantial improvement
same,effect on excessive sweating caused by primary or idiopathic hyperhidrosis,[3]; [5],Substantial improvement
same,effect on excessive sweating from other miscellaneous causes of hyperhidrosis,[3]; [5],Substantial improvement
same,"effect on excessive sweating, idiopathic or drug-induced",[3]; [5],Substantial improvement
same,effectiveness when used on an as needed basis,[3]; [5],effective
